Source: patent US6451844B1, “Use of menthyl-2 pyrrolidone-5-carboxylate as an insect repellent” (Quest International BV, priority 1998, dated 2002)

System: Aedes aegypti
Test: Insect repellency test (mosquitoes attempting to bite treated warmed membrane targets)
Format: in vivo
Details: for % Repellency initially / % Repellency After 1 Hour: neat compound, 30 microlitres on membrane, 27° C.; for % Repellency initially: 10 minute period directly after application; for % Repellency After 1 Hour: 10 minute period one hour after application
Protocol: Four test chambers were prepared using 300 mm 200 gauge […] tubing. The synthetic plastics tubing was attached to oblong stainless steel frames (150 mm by 150 mm by 900 mm) using double-sided adhesive tape. 200 mm squares of cotton netting were used to cover the ends of the chambers and were secured using adhesive tape. Mosquitoes (naive insects of the species Aedes aegypti, 4 to 7 days old) were introduced into each chamber 8 and the chambers 8 were kept in a separate room until the test was ready to begin. The exhaust fan which vents the room in which the test was performed was switched on. Four targets 5 (only two shown) were prepared as follows: double layers of semi-porous membrane were stretched over the open ends of four open ended glassware bulbs (diameter of open end 43 mm) and secured using elastic bands. Testing was carried out at 27° C. The membranes were kept moist and warmed above the ambient temperature throughout the test by passing a supply of water ([…]) through the glassware bulbs, so as to contact the inner surface of the membranes. […] This was repeated with two other membranes and the fourth membrane was left untreated as a control. The chambers 8 containing the mosquitoes were positioned so that each chamber had one netting end pressed against one of the targets 5. Glass partitions in the form of a cross 6 were used to separate each target 5 and chamber end from its neighbour. […] The separation of the membranes ensured that air passing over a particular membrane would pass through only one test chamber 8. The filters 2, 3 were used to remove volatile elements from the air passing over the mosquitoes; filter 2 contained activated charcoal and filter 3 contained a molecular sieve (Union Carbide type 5A zeolite). The material in each filter 2, 3 was held within the cells of a 25 mm thick sheet of aluminium honeycomb sandwiched between two sheets of stainless steel mesh held in an aluminium frame. The filters 2,3 were bolted by their frames to the inside of an aluminium tunnel such that air passing along the tunnel passed through the filters 2, 3. […] An electronic timer was used to project the date and time onto the screen, and the video recorder 14 was used to record the data. The mosquitoes in the test chambers 8 were activated by introduction of a human breath stimulus upwind of the targets 5 and the number of insects attempting to bite each target 5 over the next ten minute period was recorded. After ten minutes, the recording was stopped and the test chambers 8 removed from their position immediately downwind of the targets 5. […] The numbers of mosquitoes attempting to bite each of the targets 5 was noted every 10 seconds throughout each ten minute recording period. The 60 readings were used to produce a figure for the mean number of insects biting each target 5 during the ten minute test periods. The reading obtained for the untreated target 5 was used to give a measure of the basic avidity of the mosquitoes used in the test and this was taken into account when analysing the results. […] The above lotions were tested for insect repellency using the method outlined in Example 1.

| SMILES | % Repellency initially [%] | % Repellency After 1 Hour [%] | insect repellent effectiveness (in words) (compared with hydrolysis product menthol, maintained for at least 1 hour after application to a substrate) |
| --- | --- | --- | --- |
| CCN(CC)C(=O)c1cccc(C)c1 [DEET, N,N-diethyl-m-toluamide] | 93 | 75 |  |
| CC1CCC(C(C)C)C(O)C1 (stereo not shown) [Menthol, menthol] | 49 | 25 |  |
| CC1CCC(C(C)C)C(OC(=O)C2CCC(=O)N2)C1 (stereo not shown) [Menthyl 2-pyrrolidone-5-carboxylate] | 80 | 59 | more effective insect repellent than its hydrolysis product, menthol |
